{"source": "patent US20240423897A1", "about": "“LONGEVITY SERUM” (Wellbeam Consumer Health Intermediate, LLC, priority 2023, published 2024)", "origin": "cited, not measured here", "system": "skin", "conditions": "topical application"}
{"molecule": "C=C[C@@](C)(/C=C/c1ccc(O)cc1)CCC=C(C)C", "note": "[bakuchiol]", "values": [{"measurement": "effect on lines and wrinkles, pigmentation, elasticity, firmness, and photo-damage", "result": "significant improvement"}, {"measurement": "irritating effect on the skin", "result": "no irritating effect"}]}
